Where “and” joins values, the source holds several entries; their conditions need not be identical. Equal entries are not always repeated. Ends that are not written are not given here.
Experiments:
Format in all cases: in vivo, human
[1] = system: patients having macular degeneration characterized by geographic atrophy (GA); assay: Clinical study in GA patients: best corrected visual acuity (BCVA) after single intravitreal injection; details: all patients receiving 25 ug and 50 ug, compared to baseline BCVA
[2] = system: patients with retinal detachment; assay: Clinical study in retinal detachment patients: BCVA after single intravitreal injection followed by vitrectomy; details: for summary statistics for all patients, mean (of the BCVA logMAR values of Table 2): all doses 25-200 ug; for BCVA logMAR study eye / BCVA Snellen study eye: individual patients
Protocol: (§1) The primary objective was to determine the Maximum Tolerated Dose (MTD) of a peptide an amino acid sequence […] and the structure of Formula III (ONL1204) and select doses for further clinical studies. During the study, ocular fluid samples were also collected at the time of study drug injection and at the time of vitrectomy. These samples were used for pharmacokinetic and pharmacodynamic analyses.
(§2) Patients were enrolled in ascending dose groups. […] Safety visits were conducted one day post-injection and as deemed necessary by the examining Investigator (at least 1 visit every 3 days) until Visit 3. At Visit 3 (3+ days post-injection, in accordance with standard of care) patients underwent surgical repair of their retinal detachment with vitrectomy (with or without scleral buckling) and gas or oil tamponade. At the time of surgery, an undiluted vitreous sample was collected for pharmacokinetic and pharmacodynamics analyses, and an aqueous sample was collected for pharmacodynamic analysis. Additional safety visits were targeted for and generally conducted one day post-surgery, 7 days (±3 days) post-surgery, 14 (+4 days) days post-surgery, and Weeks 6, 9, 12 (±7 days each), and Week 24 (+14 days; study exit).
Therefore, a volume of 0.05 or 0.1 mL was injected into the study eye. Patient participation was approximately 24 weeks (6 months): a single injection treatment and 24 weeks of follow-up.

[3] = system: patients with retinal detachment; assay: Clinical study in retinal detachment patients: safety, adverse event reporting
Protocol: as §1, §2
Planned determinations of dose limiting toxicity included consideration of the following events: • 1.

ICAM1 = assay: Change in cytokine level in ocular fluid samples from administration to surgery
Protocol: as §1, §2

IL18 = assay: as above
Protocol: as §1, §2

IL1RA = assay: as above
Protocol: as §1, §2

MCP1 = assay: as above
Protocol: as §1, §2

[4] = 8 patients, 25 ug and 50 ug cohorts
[5] = dose 25 ug (Table 1), individual patients
[6] = dose 50 ug (Table 1), individual patients
[7] = dose 100 ug (Table 1), individual patients
[8] = dose 200 ug (Table 1), individual patient

Substance: HHIYLGAVNYIY-NH2 [ONL1204]
- visual outcomes (e.g., visual acuity) [1]: improvement in visual outcomes
- summary statistics for all patients, mean (of the BCVA logMAR values of Table 2) ([2]; Week 6, n 14): 0.65
- summary statistics for all patients, mean (of the BCVA logMAR values of Table 2) ([2]; Week 9, n 13): 0.78
- summary statistics for all patients, mean (of the BCVA logMAR values of Table 2) ([2]; Week 24, n 13): 0.56
- visual outcomes ([2]; all patients receiving ONL1204, also with greater than 10 days of central vision loss, 3 to 7 days from administration to surgery, range of detachment heights and extents): improved visual outcomes were observed for all patients
- visual outcomes (e.g., visual acuity) ([2]; retinal detachment, all patients receiving 25 ug and 50 ug, intravitreal injection then surgery): improvement in visual outcomes
- BCVA logMAR study eye ([2]; week 6, dose 25 ug (Table 1)): 0.34 logMAR and 0.18 logMAR and 0.82 logMAR (2×)
- BCVA Snellen study eye ([2]; week 6, dose 25 ug): 20/40 and 20/32 and 20/125 (2×)
- BCVA logMAR study eye ([2]; week 6, dose 50 ug (Table 1)): 0.46 logMAR and 0.38 logMAR (2×) and 0.52 logMAR
- BCVA Snellen study eye ([2]; week 6, dose 50 ug): 20/50 (2×) and 20/80
- BCVA logMAR study eye ([2]; week 6, dose 100 ug (Table 1)): 0.8 logMAR and 0.7 logMAR and 1 logMAR and 1.6 logMAR
- BCVA Snellen study eye ([2]; week 6, dose 100 ug): 20/125 and 20/100 and 20/200 and 20/800
- BCVA logMAR study eye ([2]; week 6, dose 200 ug (Table 1)): 0.4 logMAR and 0.7 logMAR
- BCVA Snellen study eye ([2]; week 6, dose 200 ug): 20/50 and 20/100
- BCVA logMAR study eye ([2]; week 9, dose 25 ug (Table 1)): 0.14 logMAR and 0.12 logMAR and 0.64 logMAR and 0.78 logMAR
- BCVA Snellen study eye ([2]; week 9, dose 25 ug): 20/25 (2×) and 20/100 and 20/125
- BCVA logMAR study eye ([2]; week 9, dose 50 ug (Table 1)): 0.6 logMAR and 0.56 logMAR and 0.34 logMAR
- BCVA Snellen study eye ([2]; week 9, dose 50 ug): 20/80 (2×) and 20/50
- BCVA Snellen study eye ([2]; week 9, dose 100 ug, HM = hand motion): 20/200 and 20/80 and 20/400
- BCVA logMAR study eye ([2]; week 9, dose 200 ug (Table 1)): 0.36 logMAR and 0.6 logMAR
- BCVA Snellen study eye ([2]; week 9, dose 200 ug): 20/40 and 20/80
- BCVA logMAR study eye ([2]; week 24, dose 25 ug (Table 1)): 0.5 logMAR and 0.2 logMAR and 0.68 logMAR and 0.7 logMAR
- BCVA Snellen study eye ([2]; week 24, dose 25 ug): 20/60 and 20/32 and 20/100 (2×)
- BCVA logMAR study eye ([2]; week 24, dose 50 ug (Table 1)): 0.76 logMAR and 0.2 logMAR and 0.64 logMAR and 0.34 logMAR
- BCVA Snellen study eye ([2]; week 24, dose 50 ug): 20/125 and 20/32 and 20/80 and 20/50
- BCVA logMAR study eye ([2]; week 24, dose 100 ug (Table 1)): 0.5 logMAR and 0.7 logMAR and 1.3 logMAR and 0.6 logMAR
- BCVA Snellen study eye ([2]; week 24, dose 100 ug): 20/63 and 20/100 and 20/400 and 20/80
- BCVA logMAR study eye ([2]; week 24, dose 200 ug (Table 1)): 0.2 logMAR
- BCVA Snellen study eye ([2]; week 24, dose 200 ug): 20/32
- patients experiencing adverse events ([3]; 4 patients receiving 25 ug and 4 patients receiving 50 ug): 7 out of 8
- severity and relatedness of adverse events [3, 4]: Most were mild, and study procedure or surgery related
- total adverse events [3, 4]: 20 adverse events
- change in ICAM level from ONL1204 administration to surgery, mean (ICAM1; all patients of Table 7): mean decrease
- ICAM1 Percent Change (%) from time of administering ONL1204 to surgery (ICAM1; [5]): −82.4% and −42.7% and −86.2%
- ICAM1 Percent Change (%) from time of administering ONL1204 to surgery (ICAM1; [6]): −100% and 0% and 64.0%
- ICAM1 Percent Change (%) from time of administering ONL1204 to surgery (ICAM1; [7]): −43.9% and 24.9% and 22.7%
- ICAM1 Percent Change (%) from time of administering ONL1204 to surgery (ICAM1; [8]): 0%
- change in IL18 level from ONL1204 administration to surgery, mean (IL18; all patients of Table 7): mean decrease
- IL18 Percent Change (%) from time of administering ONL1204 to surgery (IL18; [5]): −60.5% and −22.5% and −50.8%
- IL18 Percent Change (%) from time of administering ONL1204 to surgery (IL18; [6]): −100% and 0% (2×)
- IL18 Percent Change (%) from time of administering ONL1204 to surgery (IL18; [7]): −33.7% and 0% and 66.0%
- IL18 Percent Change (%) from time of administering ONL1204 to surgery (IL18; [8]): 0%
- change in IL1RA level from ONL1204 administration to surgery, mean (IL1RA; all patients of Table 7): mean decrease
- IL1RA Percent Change (%) from time of administering ONL1204 to surgery (IL1RA; [5]): −51.0% and −57.4% and −99.3%
- IL1RA Percent Change (%) from time of administering ONL1204 to surgery (IL1RA; [6]): −94.4% and −88.3% and −60.0%
- IL1RA Percent Change (%) from time of administering ONL1204 to surgery (IL1RA; [7]): 8.5% and −46.1% and −65.2%
- IL1RA Percent Change (%) from time of administering ONL1204 to surgery (IL1RA; [8]): −26.3%
- change in MCP1 level from ONL1204 administration to surgery, mean (MCP1; all patients of Table 7): mean decrease
- MCP1 Percent Change (%) from time of administering ONL1204 to surgery (MCP1; [5]): −41.4% and −6.02% and −35.9%
- MCP1 Percent Change (%) from time of administering ONL1204 to surgery (MCP1; [6]): −48.4% and 11.6% and −3.12%
- MCP1 Percent Change (%) from time of administering ONL1204 to surgery (MCP1; [7]): −9.5% and 78.5% and 500%
- MCP1 Percent Change (%) from time of administering ONL1204 to surgery (MCP1; [8]): −2.4%
